In one data set the test system is Alex and Alex/A.5 cells. In words: Cell survival / cytotoxicity, Alex and Alex/A.5 cells (sulforhodamine B). It is filed as cell-based, human. As to the method:
(§1) FIG. 5. Cell survival studies and LD50 determination showing cytotoxicity of a ^99 Tc-isonitrile complex that is transported by the P-glycoprotein in vitro. Survival of parental V79 and multidrug resistant LZ cells (A) and parental Alex and multidrug resistant Alex/A.5 cells (B) in increasing concentrations of carrier-added ^99 Tc-MIBI. Methods: Cell survival assays were performed by plating 4,000-20,000 cells per well in 96 well microtiter plates in triplicate in three separate experiments. V79 and LZ cells were grown essentially as described in Example 2 while Alex and Alex/A.5 were grown as described by Goldstein, L., et al., J. Natl. Cancer Inst. 81:116 (1989). Multidrug resistant cells were cultured in drug free media for 72-96 hours prior to culture in ^99 Tc-MIBI. Surviving cells were assayed by staining with sulforhodamine B (Mazzanti, R., et al., J. Cell Pharmacol. 1:50 (1990)) at 72 hours for V79 and LZ cells or 96 hours for Alex and Alex A.5 cells. Survival was expressed as the percentage of surviving cells relative to growth in alpha-MEM media without ^99 Tc-MIBI. […] LD50 determinations were obtained by interpolation from the cell survival curves.
(§2) Micromolar concentrations of carrier-added 99Tc-MIBI is shown to be cytotoxic in hamster lung fibroblast cells (A) and human carcinoma cells (B) (FIG. 5). […]

For the next data set, the system named is tumors. The following applies: human, in vivo; cited from earlier work.
The conditions of data set [1]: whole body imaging agent; cited from earlier work.
A further data set relates to V79 and LZ cells. In words: Cell survival / cytotoxicity, V79 and LZ cells (sulforhodamine B). It is filed as cell-based, hamster. Conditions: 72 hours. As to the method:
as §1, §2

Data set [2] relates to LZ cells (multidrug resistance P-glycoprotein).
Protocol: (§3) Accumulation of Tc-MIBI in LZ cells (highly expressing multidrug resistance) (0) and V79 cells (modestly expressing multidrug resistance) (.cndot.).
(§4) Cell-associated activity was then determined.
Data set [3] deals with V79 cells (multidrug resistance P-glycoprotein).
Protocol: as §3, §4
A further data set relates to P-glycoprotein. The following applies: cited from earlier work.
Data set [4] has as its system P-glycoprotein enriched membrane vesicles. Conditions: multidrug resistant cell vesicles; cited from earlier work.
Another data set deals with mitochondrial function. Conditions: typical loading activities; cited from earlier work.
For the next data set, the system named is cells and mitochondria. Conditions: cited from earlier work.

Entries after “also recorded” stand apart in the source; their conditions may differ.

As for `[99Tc].[C-]#[N+]CC(C)(C)OC.[C-]#[N+]CC(C)(C)OC.[C-]#[N+]CC(C)(C)OC.[C-]#[N+]CC(C)(C)OC.[C-]#[N+]CC(C)(C)OC.[C-]#[N+]CC(C)(C)OC` [Tc-MIBI, hexakis (2-methoxyisobutyl isonitrile) technetium-99m (I)], the “Toxicity in drug-sensitive human Alexander cells compared to multidrug-resistant derivative (Alex/A.5)” value in the data set with Alex and Alex/A.5 cells (Alex vs Alex/A.5, 96 hours) is recorded as 13 fold. In addition, the “Cytotoxicity in human carcinoma cells” value in the data set on Alex and Alex/A.5 cells (micromolar concentrations, carrier-added, 96 hours) is on record as “cytotoxic”. Further, in the data set with tumors, the “Uptake within known bronchial carcinomas” value is listed as “uptake”; the “Uptake within mediastinal and pulmonary metastasis from thyroid cancer” value is recorded as “uptake”; the “Uptake within untreated malignant lung lesions” value is recorded as “uptake”. In data set [1], the “Toxic activity at imaging doses” value is “no toxic activity; also recorded: without chemotoxic effects”. Further, in the data set on V79 and LZ cells (V79 vs LZ), the “Toxicity in drug-sensitive V79 compared to multidrug-resistant derivative (LZ)” value was determined as 11 fold. Also, the “Cytotoxicity in hamster lung fibroblast cells” value in the data set with V79 and LZ cells (micromolar concentrations, carrier-added) was “cytotoxic”. Besides, the “Net accumulation of Tc-MIBI” value in data set [2] is recorded as 0.3 fmoles Tc-MIBI/mg protein per nmolar extracellular Tc-MIBI. Also, the “Plateau net accumulation in V79 cells relative to LZ cells” value in data set [3] was determined as 20 fold.

Take `C=C[C@H]1C[N@@]2CC[C@H]1C[C@@H]2[C@@H](O)c1ccnc2ccc(OC)cc12` [Quinidine]: in the data set on P-glycoprotein, the “Inhibition of photoaffinity labeling of P-glycoprotein by vinblastine analog” value is recorded as “inhibited”.

Take `CC[C@]1(O)C[C@H]2CN(CCc3c([nH]c4ccccc34)[C@@](C(=O)OC)(c3cc4c(cc3OC)N(C=O)[C@H]3[C@@](O)(C(=O)OC)[C@H](OC(C)=O)[C@]5(CC)C=CCN6CC[C@]43[C@@H]65)C2)C1` [vincristine]: the “Inhibition of labeled vinblastine accumulation in vesicles” value in data set [4] is reported as “inhibited”. In addition, the “Inhibition of photoaffinity labeling of P-glycoprotein by vinblastine analog” value in the data set with P-glycoprotein was “inhibited”.

Regarding `CC[C@]1(O)C[C@@H]2CN(CCc3c([nH]c4ccccc34)[C@@](C(=O)OC)(c3cc4c(cc3OC)N(C)[C@H]3[C@@](O)(C(=O)OC)[C@H](OC(C)=O)[C@]5(CC)C=CCN6CC[C@]43[C@@H]65)C2)C1` [vinblastine], the “Inhibition of labeled vinblastine accumulation in vesicles” value in data set [4] is recorded as “inhibited”.

Take `COC(=O)c1ccccc1-c1c2ccc(=N)cc-2oc2cc(N)ccc12` [rhodamine 123]: the “Toxic effects on mitochondrial function” value with mitochondrial function is recorded as “toxic effects on mitochondrial function”. Further, in the data set on cells and mitochondria, the “Toxicity to cells and mitochondria” value was “toxic to cells and mitochondria”.

Regarding `CCOC(=O)C1=C(C)NC(C)=C(C(=O)OCCNC(=O)c2ccc(N=[N+]=[N-])cc2)C1c1ccccc1C(F)(F)F` (centres unmarked) [azidopine], the “Inhibition of photoaffinity labeling of P-glycoprotein by vinblastine analog” value with P-glycoprotein is “inhibited”.

`c1ccc([P+](c2ccccc2)(c2ccccc2)c2ccccc2)cc1` [TPP^+]: the “Toxic effects on mitochondrial function” value with mitochondrial function is reported as “toxic effects on mitochondrial function”.

Take `COc1cccc2c1C(=O)c1c(O)c3c(c(O)c1C2=O)C[C@@](O)(C(C)=O)C[C@@H]3O[C@H]1C[C@H](N)[C@H](O)[C@H](C)O1` [daunomycin]: the “Inhibition of photoaffinity labeling of P-glycoprotein by vinblastine analog” value in the data set with P-glycoprotein is given as “inhibited”.

With `COC(=O)[C@H]1[C@H]2C[C@@H]3c4[nH]c5cc(OC)ccc5c4CCN3C[C@H]2C[C@@H](OC(=O)c2cc(OC)c(OC)c(OC)c2)[C@@H]1OC` [reserpine], the “Inhibition of photoaffinity labeling of P-glycoprotein by vinblastine analog” value in the data set with P-glycoprotein is reported as “inhibited”.
